Experimental data reported in paper PMC7136958, “Targeting the pregnane X receptor using microbial metabolite mimicry” (EMBO Molecular Medicine, 2020).
Values joined by “and” are separate entries in the source; they are usually repeats but may differ in a detail not shown here. Identical values can stand only once. Like-named read-outs stand apart in the source and are kept apart here.

How the values were obtained:
pCAF = target: T1, pCAF (Homo sapiens, UniProt Q92831); assay: Histone acetyltransferase assay pCAF (Reaction Biology); type: biochemical; details: substrate Histone H3, replicates
T1 construct: purchased Reaction Biology Corp; host or cells: E. coli
T1 sequence (Q92831 492-658): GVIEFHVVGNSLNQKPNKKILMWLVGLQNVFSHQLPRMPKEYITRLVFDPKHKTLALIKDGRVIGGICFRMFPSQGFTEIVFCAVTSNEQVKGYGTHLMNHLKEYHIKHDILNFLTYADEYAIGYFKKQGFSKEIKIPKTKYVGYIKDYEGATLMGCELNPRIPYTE
Protocol: The following […] assays (HDAC, SIRT1, PRMT1, PARP1, p300, pCAF) were performed by Reaction Biology Corp. FKK6 was screened at a single concentration of 10 μM in duplicate in two separate experiments. The appropriate controls for the individual assays are published. The overall […]
enzyme activity in the assay is reported as a % activity in DMSO control wells. Control IC50 […]
Briefly, for the Sirtuin (SIRT1) assay, human SIRT1 (GenBank
Accession No. NM012238) full -length N-terminal His-tag protein (MW 83.2 kDa) was purified after expression in E. coli. The reaction buffer was freshly prepared and constituted 50 mM Tris-HC l ( p H 8), 137 mM NaCl, 2.7 mM KCl, 1 mM MgCl2, and just before use, 1 mg/mL BSA and 1% DMSO was added. The substrate was a fluorogenic acetylated peptide of p53 residues 379-382 (RHKK (Ac)- AM C) . […]
8), 50 mM NaCl, 0.1 mM EDTA, 1 mM DTT, 1 mM PMSF, and 1% DMSO. […] The radioactivity in mixture is detected on washed filter paper using a scintillation counter. […]
Reader (Perkin Elmer) (Ex 360 nm/ Em 460 nm). For all enzyme activity assays, the percentage of enzyme activity (relative to DMSO controls) and IC50 values were calculated using GraphPad Prism 4 program (sigmoidal dose response equations). […]

mdr1 = assay: PXR target gene expression in pxr -/- mice after FKK6 gavage; type: in vivo, mouse; details: pxr-/- (PXR knockout), mouse, oral, 500 μM, 5 doses (60 h), mean
Protocol: (§1) (Scheer et al, 2010) were administered 10% DMSO (n = 3) or FKK6 (n = 3) in 3 or 5 doses, with each dose interval of 12 h. Each gavage dose volume was 100 μl. 2–4 h after the dosing period, mice were sacrificed, and tissues were harvested for further analysis. The mouse studies were performed three independent times over an 18‐month period. All purchased mice were acclimatized in the Einstein vivarium for ~ 2 weeks before experiments started. […]. The room temperature was maintained at 25 ± 2°C with 55 ± 5% humidity. All studies were approved by the Institute of Animal Studies at the Albert Einstein College of Medicine, INC (IACUC # 20160706, 20160701 and preceding protocols), and specific animal protocols were also approved by additional protocols (IACUC# 20170406, 20170504) and Animal Care and Use Review Office (ACURO) of the US Army Medical Research and Materiel Command (PR160167, W81XWH‐17‐1‐0479). […]
(§2) Mouse small, large intestine and liver samples were collected and total RNAs were […]
(§3) isolated. […] Each tissue PCR was […]
(§4) repeated in quadruplicate. The expression was normalized to internal control, GAPDH. ( b,d) The histograms show mean (95 %CI) values, c, mean (SD) and two way ANOVA followed with Tukey's post hoc test. The entire experiment was repeated n = 3 for reproducibility. The data shown is one representative experiment .

pxr -/- mice = assay: as above; type: in vivo, mouse; details: for Cyp3a11 fold expression / mdr1 fold expression: Fig 4e
Protocol: as §1, §2, §3, §4

Cyp3a11 = assay: as above; type: in vivo, mouse; details: pxr-/- (PXR knockout), mouse, oral, 500 μM, 5 doses (60 h), mean
Protocol: as §1, §2, §3, §4

wild-type PXR.1 = target: T2, wild-type PXR.1 (Homo sapiens, UniProt O75469); assay: PXR luciferase reporter assay in HEK293T cells, wild-type PXR.1; type: cell-based; details: 10 μM, replicate wells
T2 construct: expressed in transfected cells; host or cells: HEK293T
T2 sequence (O75469 whole entry): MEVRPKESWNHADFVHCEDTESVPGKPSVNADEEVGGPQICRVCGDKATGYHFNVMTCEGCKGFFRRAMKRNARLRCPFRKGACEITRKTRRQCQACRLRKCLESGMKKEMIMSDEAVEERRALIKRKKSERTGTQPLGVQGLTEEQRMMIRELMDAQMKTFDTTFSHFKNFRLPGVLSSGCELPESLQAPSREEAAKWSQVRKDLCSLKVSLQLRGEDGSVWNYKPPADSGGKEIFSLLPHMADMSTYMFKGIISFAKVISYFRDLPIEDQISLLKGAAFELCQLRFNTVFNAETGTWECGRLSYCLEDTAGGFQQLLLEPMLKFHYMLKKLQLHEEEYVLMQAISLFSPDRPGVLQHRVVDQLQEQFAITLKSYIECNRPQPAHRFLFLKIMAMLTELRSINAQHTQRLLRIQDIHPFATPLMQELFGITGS
Protocol: After 24‐h transfection using Lipofectamine® LTX ([…] of plasmid), cells were exposed to FKK5 for 24 h. […] The data are expressed as mean ± SD RLU (relative light units from luciferase assay) normalized to β‐Gal activity in the same well. Differences were tested using 2‐way ANOVA with Tukey's multiple comparison test, and P < 0.05 was considered significant (*).

## C#CCC(O)(c1ccncc1)c1cc2ccccc2n1S(=O)(=O)c1ccccc1 (stereo not shown) [FKK6]
pCAF; 10 μM
  % Enzyme Activity to DMSO controls: 101.68% and 104.61% and 104.47%
pCAF; read-out: % Enzyme Activity to DMSO controls
  remaining activity at 10 µM: 100%
mdr1; large intestine, read-out: mdr1 fold induction, Large Intestine
  fold induction at 60 h, 500 µM: 0.71
mdr1; liver, read-out: mdr1 fold induction, Liver
  fold induction at 60 h, 500 µM: 1.22
mdr1; small intestine, read-out: mdr1 fold induction, Small Intestine
  fold induction at 60 h, 500 µM: 1.16
Pxr -/- mice; 36 h and 60 h
  PXR target gene (mdr1) expression across organs: no effect
Pxr -/- mice; Large Intestine
  Cyp3a11 fold expression: 0.69 fold and 0.64 fold and 0.66 fold
  mdr1 fold expression: 0.87 fold and 0.67 fold and 0.93 fold
Pxr -/- mice; Liver
  Cyp3a11 fold expression: 0.84 fold and 1.18 fold and 1.42 fold
Pxr -/- mice; Small Intestine
  Cyp3a11 fold expression: 0.98 fold and 0.96 fold and 1.09 fold
  mdr1 fold expression: 0.52 fold and 0.37 fold and 0.63 fold
Pxr -/- mice; mouse, in vivo
  target gene expression levels (cyp3a11, mdr1) decrease vs DMSO: ≤ 1.5 fold
Cyp3a11; large intestine, × DMSO, read-out: Cyp3a11 fold induction, Large Intestine
  fold induction at 60 h, 500 µM: 0.36
Cyp3a11; liver, read-out: Cyp3a11 fold induction, Liver
  fold induction at 60 h, 500 µM: 1.54
Cyp3a11; small intestine, × DMSO, read-out: Cyp3a11 fold induction, Small Intestine
  fold induction at 60 h, 500 µM: 0.25
wild-type PXR.1
  PXR reporter activity, RLU/B-Gal: 49029.5 RLU/B-Gal and 34153.4 RLU/B-Gal and 41512.1 RLU/B-Gal and 34385.8 RLU/B-Gal
